Patent publication US12077503B2, “Substituted cyclic amides and their use as herbicides” (FMC CORPORATION, priority 2015, dated 2024)

How the values were obtained:
Assay type in all cases: in vivo
[1] = system: velvetleaf (Abutilon theophrasti); assay: Test C postemergence; settings: scale 0 to 100, 0 no effect, 100 complete control
How it was run: (§1)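 Greenhouse test: seeds in a loam and sand blend treated preemergence, or seedlings at the 1- to 4-leaf stage (2 to 18 cm) in a peat, vermiculite and limestone mix treated postemergence, with test chemicals in a surfactant-containing non-phytotoxic solvent. Scored by eye at 13 to 15 d relative to controls, 0 (no effect) to 100 (complete control).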

[2] = system: oat, wild (wild oat, Avena fatua); assay: Test C postemergence; settings: scale 0 to 100, 0 no effect, 100 complete control
How it was run: as §1

[3] = system: Galium (catchweed bedstraw, Galium aparine); assay: Test C postemergence; settings: scale 0 to 100, 0 no effect, 100 complete control
How it was run: as §1

[4] = system: wheat (winter wheat, Triticum aestivum); assay: Test C postemergence; settings: scale 0 to 100, 0 no effect, 100 complete control
How it was run: as §1

[5] = system: barnyardgrass (Echinochloa crus-galli); assay: Test C postemergence; settings: scale 0 to 100, 0 no effect, 100 complete control
How it was run: as §1

[6] = system: pigweed (Amaranthus retroflexus); assay: Test C postemergence; settings: scale 0 to 100, 0 no effect, 100 complete control
How it was run: as §1

[7] = system: blackgrass (Alopecurus myosuroides); assay: Test C postemergence; settings: scale 0 to 100, 0 no effect, 100 complete control
How it was run: as §1

[8] = system: johnsongrass (Sorghum halepense); assay: Test C postemergence; settings: scale 0 to 100, 0 no effect, 100 complete control
How it was run: as §1

[9] = system: crabgrass, large (large crabgrass, Digitaria sanguinalis); assay: Test C postemergence; settings: scale 0 to 100, 0 no effect, 100 complete control
How it was run: as §1

[10] = system: waterhemp (common waterhemp, Amaranthus rudis); assay: Test C postemergence; settings: scale 0 to 100, 0 no effect, 100 complete control
How it was run: as §1

[11] = system: velvetleaf (Abutilon theophrasti); assay: Test G Pre-Emergence Protocol; settings: evaluated after 13 days
Method: (§2) Seeds of corn (Zea mays), giant foxtail (Setaria faberi), barnyardgrass (Echinochloa crus-galli), ivy-leaved morning glory (Ipomoea hederacea), redroot pigweed (Amaranthus retroflexus) and velvetleaf (Abutilon theophrasti) were sown in standard soil in pots. After cultivation for one day under controlled conditions in a glasshouse (at 24/16° C., day/night; 14 hours light; 65% humidity), the plants were sprayed with an aqueous spray solution derived from the formulation of the technical active ingredient in acetone/water (50:50) solution containing 0.5% Tween 20 (polyoxyethylene sorbitan monolaurate, CAS RN 9005-64-5) to give a final dose of 15.625, 62.5 or 250 g/ha of test compound.
(§3) The test plants were then grown on under controlled conditions in a glasshouse (at 24/16° C., day/night; 14 hours light; 65% humidity) and watered twice daily. After 13 days the test was evaluated (100=total damage to plant; 0=no damage to plant). A dash (-) means no test result.

[12] = system: barnyardgrass (Echinochloa crus-galli); assay: Test G Pre-Emergence Protocol; settings: evaluated after 13 days
Method: as §2, §3

[13] = system: ivy-leaved morning glory (Ipomoea hederacea); assay: Test G Pre-Emergence Protocol; settings: evaluated after 13 days
Method: as §2, §3

[14] = system: corn (Zea mays); assay: Test G Pre-Emergence Protocol; settings: evaluated after 13 days
Method: as §2, §3

[15] = system: redroot pigweed (Amaranthus retroflexus); assay: Test G Pre-Emergence Protocol; settings: evaluated after 13 days
Method: as §2, §3

[16] = system: giant foxtail (Setaria faberi); assay: Test G Pre-Emergence Protocol; settings: evaluated after 13 days
Method: as §2, §3

[17] = 62.5 g ai/ha, 100=total damage to plant, 0=no damage to plant

## O=C1NCC(c2ccc3c(c2)OC(F)(F)O3)C1C(=O)Nc1cccc(F)c1F (stereo not drawn) [Compound 635]
[1]; 31 g ai/ha
  Plant response rating, Velvetleaf: 0
[1]; 62 g ai/ha
  Plant response rating, Velvetleaf: 0
[1]; 125 g ai/ha
  Plant response rating, Velvetleaf: 10
[1]; 250 g ai/ha
  Plant response rating, Velvetleaf: 30
[2]; 31 g ai/ha
  Plant response rating, Oat, Wild: 0
[2]; 62 g ai/ha
  Plant response rating, Oat, Wild: 0
[2]; 125 g ai/ha
  Plant response rating, Oat, Wild: 0
[2]; 250 g ai/ha
  Plant response rating, Oat, Wild: 5
[3]; 31 g ai/ha
  Plant response rating, Galium: 50
[3]; 62 g ai/ha
  Plant response rating, Galium: 50
[3]; 125 g ai/ha
  Plant response rating, Galium: 60
[3]; 250 g ai/ha
  Plant response rating, Galium: 55
[4]; 31 g ai/ha
  Plant response rating, Wheat: 0
[4]; 62 g ai/ha
  Plant response rating, Wheat: 0
[4]; 125 g ai/ha
  Plant response rating, Wheat: 0
[4]; 250 g ai/ha
  Plant response rating, Wheat: 5
[5]; 31 g ai/ha
  Plant response rating, Barnyardgrass: 0
[5]; 62 g ai/ha
  Plant response rating, Barnyardgrass: 10
[5]; 125 g ai/ha
  Plant response rating, Barnyardgrass: 65
[5]; 250 g ai/ha
  Plant response rating, Barnyardgrass: 65
[6]; 31 g ai/ha
  Plant response rating, Pigweed: 65
[6]; 62 g ai/ha
  Plant response rating, Pigweed: 60
[6]; 125 g ai/ha
  Plant response rating, Pigweed: 75
[6]; 250 g ai/ha
  Plant response rating, Pigweed: 75
[7]; 31 g ai/ha
  Plant response rating, Blackgrass: 0
[7]; 62 g ai/ha
  Plant response rating, Blackgrass: 0
[7]; 125 g ai/ha
  Plant response rating, Blackgrass: 5
[7]; 250 g ai/ha
  Plant response rating, Blackgrass: 40
[8]; 31 g ai/ha
  Plant response rating, Johnsongrass: 0
[8]; 62 g ai/ha
  Plant response rating, Johnsongrass: 0
[8]; 125 g ai/ha
  Plant response rating, Johnsongrass: 5
[8]; 250 g ai/ha
  Plant response rating, Johnsongrass: 5
[9]; 31 g ai/ha
  Plant response rating, Crabgrass, Large: 20
[9]; 62 g ai/ha
  Plant response rating, Crabgrass, Large: 60
[9]; 125 g ai/ha
  Plant response rating, Crabgrass, Large: 50
[9]; 250 g ai/ha
  Plant response rating, Crabgrass, Large: 70
[10]; 31 g ai/ha
  Plant response rating, Waterhemp: 35
[10]; 62 g ai/ha
  Plant response rating, Waterhemp: 60
[10]; 125 g ai/ha
  Plant response rating, Waterhemp: 55
[10]; 250 g ai/ha
  Plant response rating, Waterhemp: 70

## CN1CC(c2ccc(F)c(F)c2)C(C(=O)Nc2ccccc2C(F)(F)F)C1=O (stereo not drawn) [Compound 641]
[1]; 31 g ai/ha
  Plant response rating, Velvetleaf: 40
[1]; 62 g ai/ha
  Plant response rating, Velvetleaf: 40
[1]; 250 g ai/ha
  Plant response rating, Velvetleaf: 50
[2]; 31 g ai/ha
  Plant response rating, Oat, Wild: 0
[2]; 62 g ai/ha
  Plant response rating, Oat, Wild: 0
[2]; 125 g ai/ha
  Plant response rating, Oat, Wild: 0
[2]; 250 g ai/ha
  Plant response rating, Oat, Wild: 0
[3]; 31 g ai/ha
  Plant response rating, Galium: 40
[3]; 62 g ai/ha
  Plant response rating, Galium: 60
[3]; 125 g ai/ha
  Plant response rating, Galium: 60
[3]; 250 g ai/ha
  Plant response rating, Galium: 65
[4]; 31 g ai/ha
  Plant response rating, Wheat: 0
[4]; 62 g ai/ha
  Plant response rating, Wheat: 0
[4]; 125 g ai/ha
  Plant response rating, Wheat: 0
[4]; 250 g ai/ha
  Plant response rating, Wheat: 0
[5]; 31 g ai/ha
  Plant response rating, Barnyardgrass: 0
[5]; 62 g ai/ha
  Plant response rating, Barnyardgrass: 10
[5]; 125 g ai/ha
  Plant response rating, Barnyardgrass: 35
[5]; 250 g ai/ha
  Plant response rating, Barnyardgrass: 65
[6]; 31 g ai/ha
  Plant response rating, Pigweed: 0
[6]; 62 g ai/ha
  Plant response rating, Pigweed: 0
[6]; 125 g ai/ha
  Plant response rating, Pigweed: 25
[6]; 250 g ai/ha
  Plant response rating, Pigweed: 50
[7]; 31 g ai/ha
  Plant response rating, Blackgrass: 0
[7]; 62 g ai/ha
  Plant response rating, Blackgrass: 0
[7]; 125 g ai/ha
  Plant response rating, Blackgrass: 0
[7]; 250 g ai/ha
  Plant response rating, Blackgrass: 0
[8]; 31 g ai/ha
  Plant response rating, Johnsongrass: 0
[8]; 62 g ai/ha
  Plant response rating, Johnsongrass: 0
[8]; 125 g ai/ha
  Plant response rating, Johnsongrass: 0
[8]; 250 g ai/ha
  Plant response rating, Johnsongrass: 0
[9]; 31 g ai/ha
  Plant response rating, Crabgrass, Large: 10
[9]; 62 g ai/ha
  Plant response rating, Crabgrass, Large: 50
[9]; 125 g ai/ha
  Plant response rating, Crabgrass, Large: 70
[9]; 250 g ai/ha
  Plant response rating, Crabgrass, Large: 70
[10]; 31 g ai/ha
  Plant response rating, Waterhemp: 10
[10]; 62 g ai/ha
  Plant response rating, Waterhemp: 10
[10]; 125 g ai/ha
  Plant response rating, Waterhemp: 25
[10]; 250 g ai/ha
  Plant response rating, Waterhemp: 30

## CN1C[C@H](c2cccc(C(F)(F)F)c2)[C@@H](C(=O)Nc2cccnc2F)C1=O [Compound 1397]
[11]; 15.625 g ai/ha
  Velvetleaf damage rating (100=total damage to plant; 0=no damage to plant): 0
[11]; 250 g ai/ha
  Velvetleaf damage rating (100=total damage to plant; 0=no damage to plant): 70
[11]; Abutilon theophrasti, pre-emergence, 312 h, 62.5 g ai/ha, 100=total damage to plant, 0=no damage to plant, read-out: plant damage rating, Velvetleaf
  pest or weed control at 62.5 g/ha: 10%
[12]; 250 g ai/ha
  Barnyardgrass damage rating (100=total damage to plant; 0=no damage to plant): 90
[12]; Echinochloa crus-galli, pre-emergence, 312 h, 15.625 g ai/ha, read-out: Barnyard grass damage rating (100=total damage to plant; 0=no damage to plant)
  pest or weed control at 15.625 g/ha: 90%
[12]; Echinochloa crus-galli, pre-emergence, 312 h, 62.5 g ai/ha, 100=total damage to plant, 0=no damage to plant, read-out: plant damage rating, Barnyardgrass
  pest or weed control at 62.5 g/ha: 90%
[13]; 250 g ai/ha
  Morningglory, Ivy-leaved damage rating (100=total damage to plant; 0=no damage to plant): 80
[13]; Ipomoea, pre-emergence, 312 h, 15.625 g ai/ha, read-out: Morning-glory, Ivy-leaved damage rating (100=total damage to plant; 0=no damage to plant)
  pest or weed control at 15.625 g/ha: 60%
[13]; Ipomoea, pre-emergence, 312 h, 62.5 g ai/ha, 100=total damage to plant, 0=no damage to plant, read-out: plant damage rating, Morningglory, Ivy-leaved
  pest or weed control at 62.5 g/ha: 70%
[14]; 15.625 g ai/ha
  Corn damage rating (100=total damage to plant; 0=no damage to plant): 80
[14]; 250 g ai/ha
  Corn damage rating (100=total damage to plant; 0=no damage to plant): 90
[14]; Zea mays, pre-emergence, 312 h, 62.5 g ai/ha, 100=total damage to plant, 0=no damage to plant, read-out: plant damage rating, Corn
  plant injury at 62.5 g/ha: 80%
[15]; 15.625 g ai/ha
  Pigweed, Redroot damage rating (100=total damage to plant; 0=no damage to plant): 0
[15]; 250 g ai/ha
  Pigweed, Redroot damage rating (100=total damage to plant; 0=no damage to plant): 80
[15]; Amaranthus retroflexus, pre-emergence, 312 h, 62.5 g ai/ha, 100=total damage to plant, 0=no damage to plant, read-out: plant damage rating, Pigweed, Redroot
  pest or weed control at 62.5 g/ha: 20%
[16]; 15.625 g ai/ha
  Foxtail, Giant damage rating (100=total damage to plant; 0=no damage to plant): 90
[16]; 250 g ai/ha
  Foxtail, Giant damage rating (100=total damage to plant; 0=no damage to plant): 90
[16]; Setaria faberi, pre-emergence, 312 h, 62.5 g ai/ha, 100=total damage to plant, 0=no damage to plant, read-out: plant damage rating, Foxtail, Giant
  pest or weed control at 62.5 g/ha: 90%

## CN1C[C@H](c2ccc(C(F)(F)F)cc2)[C@@H](C(=O)Nc2cccc(F)n2)C1=O [Compound 1400]
[11]; 15.625 g ai/ha
  Velvetleaf damage rating (100=total damage to plant; 0=no damage to plant): 10
[11]; [17]
  plant damage rating, Velvetleaf: 10
[11]; 250 g ai/ha
  Velvetleaf damage rating (100=total damage to plant; 0=no damage to plant): 60
[12]; 15.625 g ai/ha
  Barnyardgrass damage rating (100=total damage to plant; 0=no damage to plant): 30
[12]; [17]
  plant damage rating, Barnyardgrass: 80
[12]; 250 g ai/ha
  Barnyardgrass damage rating (100=total damage to plant; 0=no damage to plant): 80
[13]; 15.625 g ai/ha
  Morning-glory, Ivy-leaved damage rating (100=total damage to plant; 0=no damage to plant): 0
[13]; [17]
  plant damage rating, Morningglory, Ivy-leaved: 0
[14]; 15.625 g ai/ha
  Corn damage rating (100=total damage to plant; 0=no damage to plant): 20
[14]; [17]
  plant damage rating, Corn: 40
[14]; 250 g ai/ha
  Corn damage rating (100=total damage to plant; 0=no damage to plant): 60
[15]; 15.625 g ai/ha
  Pigweed, Redroot damage rating (100=total damage to plant; 0=no damage to plant): 20
[15]; [17]
  plant damage rating, Pigweed, Redroot: 80
[15]; 250 g ai/ha
  Pigweed, Redroot damage rating (100=total damage to plant; 0=no damage to plant): 90
[16]; 15.625 g ai/ha
  Foxtail, Giant damage rating (100=total damage to plant; 0=no damage to plant): 60
[16]; [17]
  plant damage rating, Foxtail, Giant: 90
[16]; 250 g ai/ha
  Foxtail, Giant damage rating (100=total damage to plant; 0=no damage to plant): 90
